A short description of data set [1]: Cytotoxicity against human HMEC-1 cells assessed as cell growth inhibition measured after 72 hrs by MTT assay. It counts as toxicity, cell-based. For orientation: Tetrazolium assays rely on reduction of a dye to a coloured formazan, in cell work by metabolically active cells.
For a further data set, the system named is MDA-MB-231. Put plainly: Cytotoxicity against human MDA-MB-231 cells assessed as cell growth inhibition measured after 72 hrs by MTT assay. The data set is classed as functional, cell-based. As to conditions: MDA-MB-231, 72 h.
In another data set the test system is HepG2. The data set is described as follows: Cytotoxicity against human HepG2 cells assessed as cell growth inhibition measured after 72 hrs by MTT assay. As to conditions: HepG2, 72 h. The data set is classed as functional, cell-based.
The test system of another data set is K562. Put plainly: Cytotoxicity against human K562 cells assessed as cell growth inhibition measured after 72 hrs by MTT assay. The data set is classed as functional, cell-based. Particulars: K562, 72 h.
The next data set deals with HCT-116. Put plainly: Cytotoxicity against human HCT-116 cells assessed as cell growth inhibition measured after 72 hrs by MTT assay. It counts as functional, cell-based. As to conditions: HCT-116, 72 h.
Another data set concerns A549. The data set is described as follows: Cytotoxicity against human A549 cells assessed as cell growth inhibition measured after 72 hrs by MTT assay. As to conditions: A549, 72 h. It counts as functional, cell-based.
Data set [2] addresses T1, 5-hydroxytryptamine receptor 1A (Rattus norvegicus) (UniProt P19327).
T1 sequence (whole entry): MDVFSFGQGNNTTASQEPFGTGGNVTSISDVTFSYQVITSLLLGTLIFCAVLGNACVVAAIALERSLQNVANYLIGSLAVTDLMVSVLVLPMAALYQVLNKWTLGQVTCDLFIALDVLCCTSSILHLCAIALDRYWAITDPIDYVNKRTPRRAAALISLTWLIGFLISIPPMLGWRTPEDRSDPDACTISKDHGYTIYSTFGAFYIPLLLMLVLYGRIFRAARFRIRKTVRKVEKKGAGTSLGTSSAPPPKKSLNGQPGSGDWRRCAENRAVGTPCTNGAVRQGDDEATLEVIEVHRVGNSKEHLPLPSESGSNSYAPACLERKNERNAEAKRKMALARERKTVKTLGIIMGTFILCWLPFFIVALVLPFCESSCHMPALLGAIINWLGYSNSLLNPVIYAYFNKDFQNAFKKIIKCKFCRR
Put plainly: Agonist activity at Sprague-Dawley rat hippocampal membrane 5-HT1A receptor assessed as stimulation of [35S]GTPgammaS binding by measuring maximal efficacy measured after 90 mins by scintillation counter analysis relative to control. It counts as functional, cell membranes. As to conditions: Hippocampus, filed as agonist. (Binding of GTPγS marks nucleotide exchange on a G protein.)

In ChEMBL document CHEMBL5329202, “New aryl-/heteroarylpiperazine derivatives of 1,7-dimethyl-8,9-diphenyl-4-azatricyclo[5.2.1.02,6]dec-8-ene-3,5,10-trione: Synthesis and preliminary studies of biological activities” (Bioorg Med Chem, 2023) one finds IC50 and Emax data, which are given here for two compounds.

For `COc1cccc2c1C(=O)c1c(O)c3c(c(O)c1C2=O)C[C@@](O)(C(=O)CO)C[C@@H]3O[C@H]1C[C@H](N)[C@H](O)[C@H](C)O1` [DOXORUBICIN], the IC50 (commonly the concentration needed to halve the response being measured) at 72 h in data set [1] amounted to 500 nM. In addition, the IC50 amounted to 120 nM in the data set with MDA-MB-231; 290 nM in the data set on HepG2; 210 nM in the data set with K562; 960 nM in the data set with HCT-116; 240 nM in the data set with A549.
For the compound `CCCN(CCC)C1CCc2cccc(O)c2C1` (configuration not stated), the Emax (usually the maximal effect, on the per cent scale that the assay sets) in data set [2] amounted to 148%.
